Source: patent US20200032249A1, “LABELING, ISOLATION, & ANALYSIS OF RNA FROM RARE CELL POPULATIONS” (priority 2017, published 2020)

Assays:
293T cells = test: anti-BrdU immunofluorescent staining of 293T cells treated with 5-FC or 5-FU; assay type: cell-based, human; details: 250 μM, 24 h
Protocol: S. cerevisiae CD was exogenously expressed in human embryonic kidney 293T cells, and the cells were treated with 250 μM fluorocytosine (5-FC). This system is predicted to generate intracellular fluorouracil (5-FU), which is then incorporated into newly synthesized RNAs (FIG. 1a, b). Antibodies against bromodeoxyuridine (BrdU) can recognize BrdU and other halogenated uridines incorporated into nucleic acids (8).
Human embryonic kidney transformed with […] (293T) and human breast cancer MDA-MB-231 (MDA231) cells were cultured in DMEM High Glucose medium (Wheaton) supplemented with 10% Fetal Bovine Serum (Clontech, Catalog number 631106) supplemented with 2 mM L-Glutamine. All cell lines have been routinely tested for mycoplasma contamination. For the induction of CD or CD and UPRT, cells were treated with 1 μg/ml doxycycline for 24 h. For Fluorouracil tagging, cells were treated with 250 μM of 5-FC or 5-FU unless indicated. Where indicated, 125 μM thymine was added together with 5-FC. For the formation of stress granules, cells were treated with 500 μM Sodium Arsenite (Santa Cruz Biotechnologies, Catalog number SC-301816).
Cells were fixed with 4% paraformaldehyde for 10 min, permeabilized with 0.2% TritonX-100 for 10 min, blocked with 5% BSA for one hour at room temperature, prior to incubation with primary antibodies at 4° C. overnight, and secondary antibodies (Thermo Fisher anti-chicken antibody, Catalog number A-11039, Thermo Fisher anti-rat antibody, Catalog number A-11006, Abcam anti-rat antibody, Catalog number ab150117) incubated for 1 h at room temperature. Mouse lungs were fixed in 4% paraformaldehyde overnight at 4° C., embedded in paraffin and sectioned. The lung sections were deparaffinized and stained with hematolxylin/eosin or immunostained using standard protocols. Automated image analysis was performed using the FIJI software package.

MDA-MB-231 cells = test: co-culture of CD-expressing MDA231 cells with unlabeled control cells, anti-BrdU immunostaining; assay type: cell-based, human; details: CD only, without UPRT and thymine
Protocol: FIG. 1a-f. Labeling and purification of RNA by CD expression and 5-FC treatment. FIG. 1a—Schematic diagram showing RNA labeling using CD and 5-FC. FIG. 1b—Chemical reactions steps involved in the labeling of RNA using CD and 5-FC. The dotted arrow indicates the intermediary steps that are not shown. FIG. 1c Relative fold enrichment of mRNA isolated by Flura-tagging. 293T cells expressing CD or unlabeled controls were treated with 5-FC for the indicated times, labeled mRNAs were immunopurified using anti-BrdU antibody, and the levels of labeled mRNAs of the indicated genes relative to corresponding non-immunoprecipitated inputs normalized to immunopurified mRNAs from cells not expressing CD were quantified by RT-PCR. […] FIG. 1d—Schematic diagram of the constructs used for inducible expression of UPRT and/or CD, and the experimental design. Transduced RFP+MDA231 cells were mixed with unlabeled cells, treated with doxycycline for 24 h and then 5-FC for 4-12 h. Cells were analyzed by immunofluorescence or harvested for RNA analysis. FIG. 1e—Flura-tagging in MDA231 cells in vitro. […] The fold enrichment of the indicated representative human genes over mouse housekeeping genes (mHPRT1 and mLDH1) was measured by RT-PCR (n=3±S.E.). […]
Next, we determined whether 5-FU-labeled mRNAs can be specifically and efficiently isolated by immunoprecipitation. […]

Nc1nc(=O)[nH]cc1F [5-FC, 5-fluorocytosine]
immunostaining with anti-BrdU antibody (293T cells; 293T cells expressing CD): stained by the antibody | immunostaining with anti-BrdU antibody (293T cells; untransfected control 293T cells): did not | 5-FU-labeling of neighboring cells not expressing CD (MDA-MB-231 cells): led to 5-FU-labeling of cells that did not express CD as well
